In patent publication US20230146395A1, “Substituted Pyrimidines and Uses Thereof” (Verge Analytics, Inc., priority 2020, published 2023):
pIC50: −log10 of the molar value. Structures can show the parent of a compound that is named as a salt.

target: T1, Full length human recombinant PIKFYVE (Homo sapiens, UniProt Q9Y2I7); test: Inhibition of PIKfyve (microfluidic electrophoresis kinase assay, PI3P/PS substrate); type: biochemical; settings: 12 concentrations
T1 construct: Full length human recombinant PIKFYVE; purchased Carna Biosciences (Kobe, Japan); host or cells: baculovirus expression system
T1 sequence (Q9Y2I7 whole entry): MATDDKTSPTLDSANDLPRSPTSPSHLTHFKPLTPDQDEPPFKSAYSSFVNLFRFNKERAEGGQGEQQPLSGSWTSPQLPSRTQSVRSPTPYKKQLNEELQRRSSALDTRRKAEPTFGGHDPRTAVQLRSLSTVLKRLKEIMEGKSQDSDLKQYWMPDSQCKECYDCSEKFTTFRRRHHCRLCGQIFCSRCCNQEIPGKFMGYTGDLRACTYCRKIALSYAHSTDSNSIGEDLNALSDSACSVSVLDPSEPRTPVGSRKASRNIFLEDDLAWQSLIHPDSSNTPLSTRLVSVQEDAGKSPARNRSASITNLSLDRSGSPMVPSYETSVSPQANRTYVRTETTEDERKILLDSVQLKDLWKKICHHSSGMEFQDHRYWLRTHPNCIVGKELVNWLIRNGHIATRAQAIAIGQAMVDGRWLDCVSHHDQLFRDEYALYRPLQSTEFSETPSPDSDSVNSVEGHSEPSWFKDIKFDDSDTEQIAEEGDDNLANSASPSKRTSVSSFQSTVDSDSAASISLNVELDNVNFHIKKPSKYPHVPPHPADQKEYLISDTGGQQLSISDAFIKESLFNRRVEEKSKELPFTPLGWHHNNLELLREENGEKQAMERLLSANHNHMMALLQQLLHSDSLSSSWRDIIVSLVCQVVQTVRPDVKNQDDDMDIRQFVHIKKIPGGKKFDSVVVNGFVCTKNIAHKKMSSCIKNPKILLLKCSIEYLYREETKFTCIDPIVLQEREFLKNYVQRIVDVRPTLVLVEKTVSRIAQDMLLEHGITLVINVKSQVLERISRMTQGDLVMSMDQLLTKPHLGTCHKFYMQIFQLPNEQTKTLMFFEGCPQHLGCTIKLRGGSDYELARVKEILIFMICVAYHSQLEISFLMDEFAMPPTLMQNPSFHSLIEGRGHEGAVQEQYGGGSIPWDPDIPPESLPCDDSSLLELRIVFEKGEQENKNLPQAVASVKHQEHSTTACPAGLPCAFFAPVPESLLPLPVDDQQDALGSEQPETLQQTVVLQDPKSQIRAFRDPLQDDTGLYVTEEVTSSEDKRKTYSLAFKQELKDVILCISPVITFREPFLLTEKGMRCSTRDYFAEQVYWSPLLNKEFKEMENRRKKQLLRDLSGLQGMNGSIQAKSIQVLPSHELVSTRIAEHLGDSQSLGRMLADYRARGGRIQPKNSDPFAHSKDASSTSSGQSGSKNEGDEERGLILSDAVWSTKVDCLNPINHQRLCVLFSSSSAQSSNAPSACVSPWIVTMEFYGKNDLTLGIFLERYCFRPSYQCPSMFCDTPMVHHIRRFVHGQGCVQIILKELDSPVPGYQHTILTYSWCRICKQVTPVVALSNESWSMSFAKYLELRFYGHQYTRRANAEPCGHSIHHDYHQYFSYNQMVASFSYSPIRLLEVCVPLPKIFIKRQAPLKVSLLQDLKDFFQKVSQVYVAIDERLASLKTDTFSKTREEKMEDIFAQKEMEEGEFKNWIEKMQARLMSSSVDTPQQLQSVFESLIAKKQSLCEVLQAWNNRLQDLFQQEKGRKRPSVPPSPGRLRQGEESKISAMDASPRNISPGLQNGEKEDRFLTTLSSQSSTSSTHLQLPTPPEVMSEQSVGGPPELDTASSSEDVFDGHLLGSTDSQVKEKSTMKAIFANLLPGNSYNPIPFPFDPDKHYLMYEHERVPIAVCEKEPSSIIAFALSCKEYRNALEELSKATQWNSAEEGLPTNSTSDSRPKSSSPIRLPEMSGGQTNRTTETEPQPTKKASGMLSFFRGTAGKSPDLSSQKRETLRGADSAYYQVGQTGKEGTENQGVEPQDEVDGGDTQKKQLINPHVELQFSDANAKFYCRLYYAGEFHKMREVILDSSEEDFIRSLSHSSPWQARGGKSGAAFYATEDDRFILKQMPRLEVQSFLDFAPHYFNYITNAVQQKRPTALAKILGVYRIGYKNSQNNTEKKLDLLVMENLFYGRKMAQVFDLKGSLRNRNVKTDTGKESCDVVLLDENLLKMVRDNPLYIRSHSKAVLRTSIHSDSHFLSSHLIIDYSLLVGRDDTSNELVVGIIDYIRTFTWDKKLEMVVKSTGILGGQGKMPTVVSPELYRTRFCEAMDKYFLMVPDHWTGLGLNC
Description: Full length human recombinant PIKFYVE expressed in baculovirus expression system as N-terminal GST-fusion protein (265 kDa) was obtained from Carna Biosciences (Kobe, Japan). The kinase substrate was prepared by mixing and sonicating fluorescently-labeled phosphatidylinositol 3-phosphate (PI3P) with phospho-L-serine (PS) at a 1:10 ratio in 50 mM HEPES buffer pH 7.5.
The kinase reactions were assembled in 384-well plates (Greiner) in a total volume of […] as follows. Kinase protein was pre-diluted in an assay buffer comprising 25 mM HEPES, pH 7.5, 1 mM DTT, 2.5 mM MgCl2, and 2.5 mM MnCl2, and 0.005% Triton X-100, and dispensed into a 384-well plate (10 μL per well). Test compounds were serially pre-diluted in DMSO and added to the protein samples by acoustic dispensing (Labcyte Echo). The concentration of DMSO was equalized to 1% in all samples. All test compounds were tested at 12 concentrations. Apilimod was used as a reference compound and was tested in identical manner in each assay plate. Control samples (0%-inhibition, in the absence of inhibitor, DMSO only) and 100%-inhibition (in the absence of enzyme) were assembled in replicates of four and were used to calculate %-inhibition in the presence of compounds. The reactions were initiated by addition of 10 μL of 2×PI3P/PS substrate supplemented with ATP. The final concentration of enzyme was 2 nM, the final concentration of ATP was […], and the final concentration of PI3P/PS substrate was 1 μM (PI3P). The kinase reactions were allowed to proceed for 3 h at room temperature. Following incubation, the reactions were quenched by addition of […] of termination buffer (100 mM HEPES, pH 7.5, 0.01% Triton X-100, 20 mM EDTA). Terminated plates were analyzed on a microfluidic electrophoresis instrument (Caliper LabChip® 3000, Caliper Life Sciences/Perkin Elmer). The change in the relative fluorescence intensity of the PI(3)P substrate and PI(3,5)P product peaks was measured. The activity in each test sample was determined as the product to sum ratio (PSR): P/(S+P), where P is the peak height of the product, and S is the peak height of the substrate. Percent inhibition (Pinh) was determined using the following equation:
Pinh=(PSR0% inh−PSRcompound)/(PSR0% inh−PSR100% inh)*100
in which PSRcompound is the product/sum ratio in the presence of compound, PSR0% inh is the product/sum ratio in the absence of compound, and the PSR100% inh is the product/sum ratio in the absence of the enzyme.

Compound | pIC50
CONC(=O)c1cc2nc(Nc3cc(-c4ccccc4)[nH]n3)nc(N3CCOCC3)c2o1 [Compound 58, N-methoxy-4-morpholino-2-[(5-phenyl-1H-pyrazol-3-yl)amino]furo[3,2-d]pyrimidine-6-carboxamide, hydrogen chloride] | 7.02
CN(C(=O)c1cc2nc(Nc3cc(-c4ccccc4)[nH]n3)nc(N3CCOCC3)c2o1)C1CC1 [Compound 60, N-cyclopropyl-N-methyl-4-morpholino-2-[(5-phenyl-1H-pyrazol-3-yl)amino]furo[3,2-d]pyrimidine-6-carboxamide, hydrogen chloride] | 7.15
c1cc(-c2cc3nc(Nc4cc(-c5ccsc5)n[nH]4)nc(N4CCOCC4)c3o2)ccn1 [Compound 76, 4-morpholino-6-(pyridin-4-yl)-N-(5-(thiophen-3-yl)-1H-pyrazol-3-yl)furo[3,2-d]pyrimidin-2-amine, hydrogen chloride] | 8.96
c1ccc(-n2ccc(Nc3nc(N4CCOCC4)c4oc(-c5ccncc5)cc4n3)n2)cc1 [Compound 48, 4-morpholino-N-(1-phenylpyrazol-3-yl)-6-(4-pyridyl)furo[3,2-d]pyrimidin-2-amine, hydrogen chloride] | 7.49
Cn1ccc(-c2cc3nc(-n4ccc(Br)n4)nc(N4CCOCC4)c3o2)n1 [Compound 195, 2-(3-bromopyrazol-1-yl)-6-(1-methylpyrazol-3-yl)-4-morpholino-furo[3,2-d]pyrimidine] | 6.04
Cc1cccc(-c2cnn(-c3nc(N4CC(F)(F)OC(F)(F)C4)c4oc(-c5cccnc5)cc4n3)c2)c1 [Compound 133, 6-(pyridin-3-yl)-4-(2,2,6,6-tetrafluoromorpholino)-2-(4-(m-tolyl)-1H-pyrazol-1-yl)furo[3,2-d]pyrimidine] | < 4.70
CNC(=O)c1cc2nc(Nc3cc(C(C)C)n[nH]3)nc(N3CCOCC3)c2o1 [Compound 88, 2-((5-isopropyl-1H-pyrazol-3-yl)amino)-N-methyl-4-morpholinofuro[3,2-d]pyrimidine-6-carboxamide, hydrogen chloride] | 5.13
Cc1cccc(-c2ccn(-c3nc(N4CCOCC4)c4oc(-c5cc(C)n[nH]5)cc4n3)n2)c1 [Compound 173, 6-(3-methyl-1H-pyrazol-5-yl)-4-morpholino-2-[3-(m-tolyl)pyrazol-1-yl]furo[3,2-d]pyrimidine] | 9.22
Cc1cc(Nc2nc(N3CCOCC3)c3oc(-c4ccncc4)cc3n2)[nH]n1 [Compound 5, N-(5-methyl-1H-pyrazol-3-yl)-4-morpholino-6-(4-pyridyl)furo[3,2-d]pyrimidin-2-amine, hydrogen chloride] | 6.55
CONC(=O)c1cc2nc(-n3ccc(-c4cccc(C)c4)n3)nc(N3CCOCC3)c2o1 [Compound 99, N-methoxy-4-morpholino-2-(3-(m-tolyl)-1H-pyrazol-1-yl)fur[3,2-d]pyrimidine-6-carboxamide] | 7.11
FC(F)(F)c1cc(Nc2nc(N3CCOCC3)c3oc(-c4ccncc4)cc3n2)[nH]n1 [Compound 72, 4-morpholino-6-(pyridin-4-yl)-N-(5-(trifluoromethyl)-1H-pyrazol-3-yl)furo[3,2-d]pyrimidin-2-amine, hydrogen chloride] | 6.26
CN1CCCC(c2cc3nc(Nc4cc(-c5ccccc5)n[nH]4)nc(N4CCOCC4)c3o2)C1 (stereo not drawn) [Compound 35, 6-(1-methylpiperidin-3-yl)-4-morpholino-N-(3-phenyl-1H-pyrazol-5-yl)furo[3,2-d]pyrimidin-2-amine hydrochloride] | 6.69
CN1CCCC(NC(=O)c2cc3nc(-n4cc(-c5ccccc5)cn4)nc(N4CCOCC4)c3o2)CC1 (stereo not drawn) [Compound 176, N-(1-methylazepan-4-yl)-4-morpholino-2-(4-phenylpyrazol-1-yl)furo[3,2-d]pyrimidine-6-carboxamide] | 7.33
Cc1cccc(-c2ccn(-c3nc(N4CCOCC4)c4oc(-c5ccn(C)n5)cc4n3)n2)c1 [Compound 189, 6-(1-methylpyrazol-3-yl)-4-morpholino-2-[3-(m-tolyl)pyrazol-1-yl]furo[3,2-d]pyrimidine] | 9.10
Cc1cccc(-c2cnn(-c3nc(N4CCOCC4)c4oc(-c5cc(C)n(CCNC(=O)CCl)n5)cc4n3)c2)c1 [Compound 198, 2-chloro-N-[2-[5-methyl-3-[4-morpholino-2-[4-(m-tolyl)pyrazol-1-yl]furo[3,2-d]pyrimidin-6-yl]pyrazol-1-yl]ethyl]acetamide] | 9.22
CNC(=O)c1cc2nc(Nc3cc(C4CC4)n[nH]3)nc(N3CCOCC3)c2o1 [Compound 78, 2-((3-cyclopropyl-1H-pyrazol-5-yl)amino)-N-methyl-4-morpholinofuro[3,2-d]pyrimidine-6-carboxamide hydrochloride] | 5.11
CNC(=O)c1cc2nc(Nc3cc(Cc4ccccc4)n[nH]3)nc(N3CCOCC3)c2o1 [Compound 82] | 5.86
c1cc(-c2cc3nc(Nc4cc(CC5CC5)n[nH]4)nc(N4CCOCC4)c3o2)ccn1 [Compound 69, N-(3-(cyclopropylmethyl)-1H-pyrazol-5-yl)-4-morpholino-6-(pyridin-4-yl)furo[3,2-d]pyrimidin-2-amine hydrochloride] | 6.47
Cn1cc(-c2cc3nc(-n4ccc(-c5ccccc5)n4)nc(N4CCOCC4)c3o2)cn1 [Compound 208, 6-(1-methylpyrazol-4-yl)-4-morpholino-2-(3-phenylpyrazol-1-yl)furo[3,2-d]pyrimidine] | 8.09
O=C(O)c1cc2nc(Nc3cc(-c4ccccc4)[nH]n3)nc(N3CCOCC3)c2o1 [Compound 141, 4-morpholino-2-((5-phenyl-1H-pyrazol-3-yl)amino)furo[3,2-d]pyrimidine-6-carboxylic acid] | 6.60
Cc1cccc(-c2cc(Nc3nc(N4CCOCC4)c4occc4n3)[nH]n2)c1 [Compound 8, 4-morpholino-N-[5-(m-tolyl)-1H-pyrazol-3-yl]furo[3,2-d]pyrimidin-2-amine, hydrogen chloride] | 7.23
c1ccc(-c2cc(Nc3nc(N4CCOCC4)c4oc(-c5ccncc5)cc4n3)on2)cc1 [Compound 44, 4-morpholino-N-(3-phenylisoxazol-5-yl)-6-(pyridin-4-yl)furo[3,2-d]pyrimidin-2-amine] | 8.70
c1ccc(-c2cc(Nc3nc(N4CCOCC4)c4oc(CN5CCOCC5)cc4n3)[nH]n2)cc1 [Compound 12, 4-morpholino-6-(morpholinomethyl)-N-(3-phenyl-1H-pyrazol-5-yl)furo[3,2-d]pyrimidin-2-amine hydrochloride] | 6.94
Cc1cccc(-c2ccn(-c3nc(N4CCOCC4)c4oc(-c5cc(C)no5)cc4n3)n2)c1 [Compound 204, 6-(3-methylisoxazol-5-yl)-4-morpholino-2-(3-(m-tolyl)-1H-pyrazol-1-yl)furo[3,2-d]pyrimidine] | 8.68
Cn1ccc(-c2cc3nc(-n4cc(Br)cn4)nc(N4CCOCC4)c3o2)n1 [Compound 194, 2-(4-bromopyrazol-1-yl)-6-(1-methylpyrazol-3-yl)-4-morpholino-furo[3,2-d]pyrimidine] | 6.57
CCNC(=O)c1cc2nc(-n3ccc(-c4ccccc4)n3)nc(N3CCOCC3)c2o1 [Compound 152, N-ethyl-4-morpholino-2-(3-phenyl-1H-pyrazol-1-yl)furo[3,2-d]pyrimidine-6-carboxamide] | 6.51
Cc1cccc(-c2ccn(-c3nc(N4CCOCC4)c4oc(-c5cc(C)ns5)cc4n3)n2)c1 [Compound 210, 6-(3-methylisothiazol-5-yl)-4-morpholino-2-[3-(m-tolyl)pyrazol-1-yl]furo[3,2-d]pyrimidine] | 8.42
Cc1cccc(-c2ccn(-c3nc(N4CCOCC4)c4oc(-c5ncco5)cc4n3)n2)c1 [Compound 218, 4-morpholino-2-[3-(m-tolyl)pyrazol-1-yl]-6-oxazol-2-yl-furo[3,2-d]pyrimidine] | 8.04
Cc1cccc(-c2cnn(-c3nc(N4CCOCC4)c4oc(C(=O)NC5CC5)c(C(F)(F)F)c4n3)c2)c1 [Compound 147, N-cyclopropyl-4-morpholino-2-(4-(m-tolyl)-1H-pyrazol-1-yl)-7-(trifluoromethyl)furo[3,2-d]pyrimidine-6-carboxamide] | 5.99
O=C(NC1COC1)c1cc2nc(-n3cc(-c4ccccc4)cn3)nc(N3CCOCC3)c2o1 [Compound 174, 4-morpholino-N-(oxetan-3-yl)-2-(4-phenylpyrazol-1-yl)furo[3,2-d]pyrimidine-6-carboxamide] | 6.27
